These are literature values, as cited in paper PMC10386414 (Molecules, 2023).

Structures are written as SMILES.

For series [1] the following is noted: earlier work, reference not given.
The subject of series [2] is MOR. Set-up: method as in PMID 17625813. To be noted: receptor binding assay.
Series [3] relates to MOR. Also noted: method as in PMID 33479684. To be noted: cAMP assay, acted as a partial agonist.
Details of series [4]: method as in PMID 37381112. To be noted: depending on the animal species used and the pain stimulus.
Details of series [5]: method as in PMID 37381112. To be noted: in vivo.

`Oc1cccc(C23CCCC(C2O)N(CCc2ccccc2)CC3)c1` [1R,5R,9S-OH compound]: the “potency in vivo relative to morphine” value in series [1] is “about 500 times”. The MOR affinity result in series [2] is “sub-nanomolar”.

`CCC[C@H]1[C@@H]2CCC[C@@]1(c1cccc(O)c1)CCN2CCc1ccccc1` [compound 16]: in series [3], the “%Emax (efficacy)” value is listed as 45%. For the same compound, the EC50 in series [3] (read-out: EC50 (potency)) is 1.42 nM. Further, the antinociceptive activity result in series [4] is listed as “some antinociceptive activity”. Also, the locomotor effects result in series [5] is given as “unlike morphine in its locomotor effects”.
